The text below walks through data of PMC2666795, “Bacterial Genome Partitioning: N-Terminal Domain of IncC Protein Encoded by Broad-Host-Range Plasmid RK2 Modulates Oligomerisation and DNA Binding” (Journal of Molecular Biology, 2009).

For one data set, the target named is T1, IncC1 (Escherichia coli, UniProt P07673).
T1 construct: gene incC; full-length 364 aa, His6-tagged from modified pET28a (pGBT342), expressed in E. coli BL21, nickel-agarose; thrombin cleavage of tag described; monomer 40 kDa, dimer 80 kDa with ATP
T1 sequence (P07673 1-364): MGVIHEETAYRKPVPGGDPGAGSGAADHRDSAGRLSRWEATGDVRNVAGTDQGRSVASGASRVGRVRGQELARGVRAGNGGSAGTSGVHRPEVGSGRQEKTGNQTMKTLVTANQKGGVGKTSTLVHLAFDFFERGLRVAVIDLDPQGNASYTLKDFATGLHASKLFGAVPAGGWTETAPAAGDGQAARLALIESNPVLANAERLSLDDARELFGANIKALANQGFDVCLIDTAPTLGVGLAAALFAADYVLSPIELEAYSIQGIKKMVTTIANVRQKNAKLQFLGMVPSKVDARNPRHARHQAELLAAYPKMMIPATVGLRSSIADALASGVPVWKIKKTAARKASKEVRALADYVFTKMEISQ
As to the kind of experiment: velocity sedimentation (analytical ultracentrifugation), dimer formation. Particulars: read-out: Kapp. The data set is classed as binding.

For a further data set, the target named is T2, IncC2 (Escherichia coli, UniProt P07673).
T2 construct: gene incC; short form 259 aa (IncC1 without residues 1-105), His6-tagged from modified pET28a (pGBT343), expressed in E. coli BL21, nickel-agarose; thrombin cleavage of tag described
T2 sequence (P07673 106-364): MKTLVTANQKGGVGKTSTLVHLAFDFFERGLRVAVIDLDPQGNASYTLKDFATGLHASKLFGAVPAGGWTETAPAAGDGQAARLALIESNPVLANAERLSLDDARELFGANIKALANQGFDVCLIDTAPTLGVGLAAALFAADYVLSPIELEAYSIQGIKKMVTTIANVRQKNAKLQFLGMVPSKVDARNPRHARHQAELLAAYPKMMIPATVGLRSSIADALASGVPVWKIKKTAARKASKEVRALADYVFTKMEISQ
The experiment in a line: glutaraldehyde cross-linking with the IncC1 N-terminal domain. To be noted: 2 mM ADP, 10 mM MgCl2, 25 mM phosphate pH 7.5; nucleotide-dependent binding of NTD to IncC2.

Data set [1] deals with the molecule itself. As to the kind of experiment: AUC; velocity sedimentation, 30 μM IncC1 with varying ATP concentrations, with magnesium; 50 mM sodium phosphate pH 8.0, 100 mM NaCl, 40,000 rpm, 4 °C.
For data set [2], the target named is T3, IncC2 (259 aa), short ParA protein made from the second translational start of incC of plasmid RK2 (plasmid RK2 (IncP-1), UniProt P07673 106-364).
T3 construct: IncC2, the product of the second translational start of incC of plasmid RK2, 259 aa; it lacks the N-terminal domain (amino acids 1-105) of IncC1; numbers count on IncC1; also called His6-IncC2; source: E. coli BL21 (printed: C600 BL21), modified pET28a vector, purified (nickel-agarose)
T3 sequence (looked up): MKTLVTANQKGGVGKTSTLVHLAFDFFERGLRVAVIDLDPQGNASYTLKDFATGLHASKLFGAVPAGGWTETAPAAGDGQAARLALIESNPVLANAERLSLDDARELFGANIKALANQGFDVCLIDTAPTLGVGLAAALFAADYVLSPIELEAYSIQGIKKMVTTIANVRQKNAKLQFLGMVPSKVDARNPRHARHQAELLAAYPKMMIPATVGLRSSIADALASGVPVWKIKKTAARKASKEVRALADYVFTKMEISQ
The experiment in a line: cross-linking; glutaraldehyde 0-0.1%, with 2 mM ATP; 5 μg of each protein in 50 μl, 10 mM MgCl2, 25 mM phosphate buffer pH 7.5; 30 min 37 °C, then 30 min 30 °C with glutaraldehyde; SDS-PAGE, Western blot with anti-IncC. To be noted: both partners purified. For orientation: In western blotting, separated proteins are transferred to a membrane and probed.

The term stoichiometry N denotes a count of units in the complex or per binding partner.

In the case of `Nc1ncnc2c1ncn2[C@@H]1O[C@H](COP(=O)(O)OP(=O)(O)O)[C@@H](O)[C@H]1O` [ADP], at IncC1, the Kd amounted to 54 µM. In addition, the “glutaraldehyde cross-linking with the IncC1 N-terminal domain” value on IncC2 is reported as “In the presence of either ATP or ADP, the NTD was found to interact with IncC2”.

Consider `Nc1ncnc2c1ncn2[C@@H]1O[C@H](COP(=O)(O)OP(=O)(O)OP(=O)(O)O)[C@@H](O)[C@H]1O` [ATP], for which the Kd on IncC1 is 7.7 µM.

B1: IncC1 (364 aa), long ParA protein encoded by incC of broad-host-range plasmid RK2 (natural protein, plasmid RK2 (IncP-1), UniProt P07673 1-364, looked up)
chain: MGVIHEETAYRKPVPGGDPGAGSGAADHRDSAGRLSRWEATGDVRNVAGTDQGRSVASGASRVGRVRGQELARGVRAGNGGSAGTSGVHRPEVGSGRQEKTGNQTMKTLVTANQKGGVGKTSTLVHLAFDFFERGLRVAVIDLDPQGNASYTLKDFATGLHASKLFGAVPAGGWTETAPAAGDGQAARLALIESNPVLANAERLSLDDARELFGANIKALANQGFDVCLIDTAPTLGVGLAAALFAADYVLSPIELEAYSIQGIKKMVTTIANVRQKNAKLQFLGMVPSKVDARNPRHARHQAELLAAYPKMMIPATVGLRSSIADALASGVPVWKIKKTAARKASKEVRALADYVFTKMEISQ
notes: IncC1, the product of the first translational start of incC (parA) of IncP-1 plasmid RK2, 364 aa; also called His6-IncC1; His-IncC1; source: E. coli BL21 (printed: C600 BL21), modified pET28a vector, purified (nickel-agarose)
As for B1, the “stoichiometry N” value in data set [1] worked out at 2.

B2: N-terminal domain of IncC1 (amino acids 1-105) (domain or fragment, plasmid RK2 (IncP-1), UniProt P07673 1-105, looked up)
chain: MGVIHEETAYRKPVPGGDPGAGSGAADHRDSAGRLSRWEATGDVRNVAGTDQGRSVASGASRVGRVRGQELARGVRAGNGGSAGTSGVHRPEVGSGRQEKTGNQT
notes: N-terminal domain of IncC1 of plasmid RK2, amino acids 1-105, 11 kDa; also called NTD; IncC1 NTD; source: E. coli, expressed from pSMB315 (pGBT340 with incC1-NTD), purified
As to B2, the binding result in data set [2] is on record as “binds”.
